Drawing on ChEMBL document CHEMBL4024755, “Pharmacophore Hybridization To Discover Novel Topoisomerase II Poisons with Promising Antiproliferative Activity” (J Med Chem, 2018), this text covers IC50, Activity and inhibition for seven compounds.

SMILES strings stand for the structures. Calls of active or inactive are those of the source. No cut-off for these calls is given here.

Assay [1] has as its system HeLa. Briefly: Antiproliferative activity against human HeLa cells after 72 hrs by MTT assay. The assay is classed as functional, cell-based. For orientation: Tetrazolium dyes change colour on reduction, which living cells bring about.
In assay [2] the target is T1, DNA topoisomerase 2-alpha (Homo sapiens, UniProt P11388). Briefly: Poison activity at human Topo2alpha expressed in baculovirus-infected insect cells using pBR322 as substrate assessed as concentration required to observe the same amount of topo2/DNA cleavage complex generated by etoposide at 20 uM after 6 minutes by ethidium bromide staining based agarose gel electrophoresis.
T1 sequence (P11388 whole entry): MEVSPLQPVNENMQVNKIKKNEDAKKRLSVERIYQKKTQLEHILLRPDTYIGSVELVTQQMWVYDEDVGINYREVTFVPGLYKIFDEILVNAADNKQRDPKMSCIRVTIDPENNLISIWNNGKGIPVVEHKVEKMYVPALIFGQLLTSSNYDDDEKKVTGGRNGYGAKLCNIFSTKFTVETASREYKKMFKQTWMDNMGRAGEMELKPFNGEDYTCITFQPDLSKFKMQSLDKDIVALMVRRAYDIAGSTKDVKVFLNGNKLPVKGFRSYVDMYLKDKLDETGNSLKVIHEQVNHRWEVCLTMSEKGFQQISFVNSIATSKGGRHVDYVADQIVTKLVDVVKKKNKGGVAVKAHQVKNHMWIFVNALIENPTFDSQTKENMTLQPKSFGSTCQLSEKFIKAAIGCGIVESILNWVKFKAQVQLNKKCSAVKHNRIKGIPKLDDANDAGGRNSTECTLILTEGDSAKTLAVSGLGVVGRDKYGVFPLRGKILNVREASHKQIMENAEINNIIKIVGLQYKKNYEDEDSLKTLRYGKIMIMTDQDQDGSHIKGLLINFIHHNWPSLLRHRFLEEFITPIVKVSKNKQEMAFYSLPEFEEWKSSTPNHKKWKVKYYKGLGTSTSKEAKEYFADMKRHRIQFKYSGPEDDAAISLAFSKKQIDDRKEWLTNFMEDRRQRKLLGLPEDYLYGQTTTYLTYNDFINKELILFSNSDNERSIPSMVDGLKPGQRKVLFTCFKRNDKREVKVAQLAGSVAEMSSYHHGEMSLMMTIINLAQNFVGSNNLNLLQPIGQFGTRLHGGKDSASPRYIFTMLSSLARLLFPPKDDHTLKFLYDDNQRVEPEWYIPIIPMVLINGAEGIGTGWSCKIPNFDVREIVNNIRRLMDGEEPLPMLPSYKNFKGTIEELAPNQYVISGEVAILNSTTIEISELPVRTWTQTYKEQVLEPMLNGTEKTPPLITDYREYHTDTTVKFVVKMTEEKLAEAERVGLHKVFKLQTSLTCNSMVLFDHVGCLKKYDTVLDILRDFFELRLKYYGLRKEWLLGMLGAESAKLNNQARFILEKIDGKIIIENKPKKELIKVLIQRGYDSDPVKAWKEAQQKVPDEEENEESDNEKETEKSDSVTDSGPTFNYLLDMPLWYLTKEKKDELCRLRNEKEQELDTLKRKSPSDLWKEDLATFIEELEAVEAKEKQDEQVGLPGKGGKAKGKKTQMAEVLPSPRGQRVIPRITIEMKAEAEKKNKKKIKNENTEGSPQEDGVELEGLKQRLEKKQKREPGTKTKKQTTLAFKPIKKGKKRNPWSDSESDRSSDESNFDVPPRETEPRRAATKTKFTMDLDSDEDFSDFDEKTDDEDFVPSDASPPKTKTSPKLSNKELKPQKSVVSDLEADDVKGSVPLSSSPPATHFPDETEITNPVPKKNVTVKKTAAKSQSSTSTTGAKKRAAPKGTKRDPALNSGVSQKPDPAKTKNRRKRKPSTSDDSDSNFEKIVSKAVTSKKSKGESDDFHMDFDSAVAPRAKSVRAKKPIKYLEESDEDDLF

The species entered for assay [3] is Bos taurus. Briefly: Binding affinity to calf thymus DNA in absence of topo2 enzyme by circular dichroism titration analysis.
The subject of the next assay is MCF7. The experiment in a line: Antiproliferative activity against human MCF7 cells after 72 hrs by MTT assay. Conditions: MCF7, 72 h. The format is functional, cell-based.
The next assay has as its system DU-145. The experiment in a line: Antiproliferative activity against human DU145 cells after 72 hrs by MTT assay. Conditions: DU-145, 72 h. The assay is classed as functional, cell-based.
The next assay relates to A549. The experiment in a line: Antiproliferative activity against human A549 cells after 72 hrs by MTT assay. The format is functional, cell-based. Conditions: A549, 72 h.
For assay [4], the species on record is Bos taurus. Briefly: Binding affinity to calf thymus DNA at 50 uM by UV-spectrophotometric analysis.
Assay [5] addresses T1, DNA topoisomerase 2-alpha. Briefly: Inhibition of human topoisomerase 2alpha expressed in baculovirus-infected insect cells assessed as reduction in pBR322 supercoiled DNA relaxation after 60 mins by ethidium bromide staining based agarose gel electrophoresis.
Assay [6] addresses T1, DNA topoisomerase 2-alpha. Briefly: Poison activity at human Topo2alpha expressed in baculovirus-infected insect cells using pBR322 as substrate assessed as topo2/DNA cleavage complex generation after 6 minutes by ethidium bromide staining based agarose gel electrophoresis.
Assay [7] deals with HeLa. The experiment in a line: Inhibition of human of DNA topoisomerase 2 in human HeLa cells assessed as induction of H2AX phosphorylation at 10 uM after 90 mins by NuPAGE based electrophoresis. The assay is classed as cell-based.

The IC50 is the concentration at which inhibition is half-maximal. Consider `COc1cc(NC(=O)c2c(O)n(-c3ccccc3)c(=S)n(-c3ccccc3)c2=O)cc(OC)c1O`, for which the IC50 is 18.1 µM in the assay with HeLa [1]; 53.5 µM in the assay on MCF7; 26.7 µM in the assay on DU-145; 17.5 µM in the assay on A549; 120 µM in assay [5]. The Activity in assay [2] came out at 200 µM. Further, the result in the assay filed under Bos taurus [3] and in the assay filed under Bos taurus [4] was inactive.

In the case of `O=C(Nc1cccc(O)c1)c1c(O)n(-c2ccccc2)c(=S)n(-c2ccccc2)c1=O`, the IC50 in the assay with HeLa [1] worked out at 39.1 µM; in the assay on MCF7 it was 94.2 µM; in the assay with DU-145 it was 49.6 µM; in the assay with A549, 59.4 µM; in assay [5], 200 µM. Further, the result (in the assay filed under Bos taurus [3]; in [6]; in the assay filed under Bos taurus [4]) was inactive.

For `O=C(Nc1ccc(O)cc1)c1c(O)n(-c2ccccc2)c(=S)n(-c2ccccc2)c1=O`, the IC50 in the assay on HeLa [1] was determined as 42.9 µM; in the assay on MCF7, 66.1 µM; with DU-145, 42.5 µM; with A549, 37.1 µM; in [5], 150 µM. The Activity in [2] was determined as 200 µM. The outcome in the assay listed under Bos taurus [3] and in the assay filed under Bos taurus [4] was inactive.

On to `O=C(Nc1ccccc1)c1c(O)n(-c2ccccc2)c(=S)n(-c2ccccc2)c1=O`, for which the IC50 in the assay with HeLa [1] was 10.8 µM; in the assay with MCF7, 13.6 µM; in the assay with DU-145, 16.8 µM; in the assay on A549 it was 9.2 µM; in assay [5], 5 µM. For the same compound, the Activity in assay [2] was 200 µM. Moreover, the inhibition result in the assay with HeLa [7] is “Active”. For the same compound, the outcome in the assay listed under Bos taurus [3] and in the assay listed under Bos taurus [4] was inactive.

In the case of `COc1cc([C@@H]2c3cc4c(cc3[C@@H](O[C@@H]3O[C@@H]5CO[C@@H](C)O[C@H]5[C@H](O)[C@H]3O)[C@H]3COC(=O)[C@H]23)OCO4)cc(OC)c1O` [ETOPOSIDE], the IC50 worked out at 2.4 µM in the assay on HeLa [1], 10.5 µM with MCF7, 1 µM with DU-145 and 1.3 µM with A549. Besides, in the assay listed under Bos taurus [4], the result was inactive.

`COc1cccc(NC(=O)c2c(O)n(-c3ccccc3)c(=S)n(-c3ccccc3)c2=O)c1`: the IC50 with HeLa [1] came to 8.5 µM; in the assay on MCF7, 14 µM; with DU-145 it was 12.5 µM; in the assay on A549 it was 6.9 µM; in [5] it was 30 µM. Also, in assay [2], the Activity was found to be 100 µM. Besides, the result in the assay listed under Bos taurus [3] and in the assay listed under Bos taurus [4] was inactive.

For `O=C1NC(=S)NC(=O)C1C(=O)Nc1ccccc1` [MERBARONE], the IC50 with HeLa [1] is 62.3 µM; in the assay on MCF7, 83.9 µM; with DU-145, 18.9 µM; with A549, 40 µM; in assay [5] it was 120 µM. Moreover, the outcome (in assay [6]; in the assay filed under Bos taurus [4]) was inactive.
